Test results: patent US20210127671A1, “HYPERSENSITIVE RESPONSE ELICITOR PEPTIDES AND USE THEREOF” (priority 2015, published 2021)
Where two headings read alike, the source gives them in different places. Peptide text beside a SMILES is read from it.

Key:
[1] = pH 8
[2] = system: Soy; assay: Growth test, foliar spray, soy; format: in vivo
Description: For growth tests, corn and soy seeds were planted in flats with 2 seeds per cell within the flat at a greenhouse facility. The seeds were allowed to germinate and the smaller plant is culled, leaving one plant per cell. Once the first true leaves are fully expanded and the second leaves are beginning to expand, the plants were initially measured for height. This was performed by stretching the highest leaf upward and measuring the distance to the soil. Peptides were dissolved in water at the indicated concentrations (below). The plants were then treated with a foliar spray using widely available spray bottles until liquid was dripping from the leaves. 4 flats of 14 plants each were treated per condition (peptide or control). Corn and soy were treated as indicated in Table 13 and compared with matched water-treated control plants. The plants were allowed to grow for 14 days. The height of the plants was again measured and compared to the original height to quantify growth. In some cases, the plants were allowed to grow without watering for 2-4 days until the onset of wilting and drought stress. At this time, the above-ground portions of the plants were harvested and weighed to determine the fresh mass. […] Growth, dry biomass, and fresh mass are calculated as the % increase over the water-treated control.

[3] = 50° C., 50 mM TES, pH 8.0 and 30% isopropanol
[4] = Stability against chemical degradation in water or pH buffers at 50° C. (HPLC); settings: for precipitation during stability test: 0.2% AI, 0.25% Proxel GXL, 50 mM buffers, 50° C.
Description: Briefly, the stability and resistance to chemical degradation of peptides can be assessed as follows using peptide samples having an initial purity of at least about 80%, at least about 82%, at least about 84%, at least about 86%, at least about 88%, at least about 90%, at least about 92%, at least about 94%, at least about 96%, or at least about 98%. For water stability, the peptide is dissolved directly in de-ionized water. For chemical degradation tests, the peptide is dissolved in an aqueous solution containing 50 mM pH buffer and 0.25% Proxel GXL. Exemplary pH buffers include, without limitation: (i) Citrate pH 5.6; (ii) MES pH 6.2; (iii) MOPS pH 6.5; (iv) imidazole pH 7.0; (v) Citrate pH 7.2; (vi) EDDS, pH 7.3; (vii) EDTA pH 8.0; (viii) sodium phosphate pH 8.0; or (ix) TES pH 8.0. Peptides are first dissolved in the aqueous solution at a concentration of 0.5 mg/ml. […] An initial sample of the peptide is removed, diluted 10× with water, and analyzed by reverse-phase HPLC. Briefly, 20 μl of the sample is injected into the solvent flow of an HPLC instrument and analyzed on a C18 HPLC column (YMC ProPack C18, YMC, Japan, or C18 Stablebond, Agilent Technologies, USA) using either a triethylamine phosphate in water/acetonitrile gradient or a 0.1% TFA in water/0.1% TFA in acetonitrile gradient to separate different peptide species. Eluting peptides are monitored by UV absorbance at 218 nm and quantified based on the area under the peak. The area under the peak for the initial peptide sample is treated as the standard for relative quantification in subsequent runs. At regular intervals (e.g., 1, 3, 7, 10, 14, 17, and 21 days), each peptide sample is surveyed and analyzed by HPLC as described above.
Stability against chemical degradation was assessed in various pH buffers by creating 0.2% AI solutions of pure, chemically synthesized peptide in deionized water, 0.25% weight to volume of Proxel® GXL (biocide), and 50 millimolar (mM) of eight buffers (separately) as follows: MES pH 5.6, MOPS pH 6.5, Citrate pH 7.2, EDDS pH 7.3, EDTA pH 8, Phosphate pH 8, Imidazole pH 8, and TES pH 8.

[5] = not given; remark: listed apart in the source
[6] = 0.2% AI in deionized water, 48 hours at room temperature

## CC[C@H](C)[C@H](NC(=O)[C@H](CCC(=O)O)NC(=O)[C@H](CCC(=O)O)NC(=O)[C@H](CCC(=O)O)NC(=O)[C@H](CCC(=O)O)NC(=O)[C@H](CCC(=O)O)NC(=O)[C@@H](N)CO)C(=O)N[C@@H](C)C(=O)N[C@@H](CCCCN)C(=O)N[C@@H](CC(C)C)C(=O)N[C@H](C(=O)N[C@@H](CO)C(=O)N[C@@H](C)C(=O)N[C@@H](CC(C)C)C(=O)N[C@H](C(=O)N[C@@H](CCC(=O)O)C(=O)N[C@@H](CO)C(=O)N[C@@H](CC(C)C)C(=O)N[C@@H](CC(C)C)C(=O)N[C@@H](CCC(=O)O)C(=O)O)[C@@H](C)CC)[C@@H](C)CC [Peptide P15-59] (H-SEEEEEIAKLISALIESLLE-OH; N-terminus and C-terminus assumed)
[1]
  solubility: > 10000 µg/mL

## SEGISEKQLDQLLSQLIEALLQP [Peptide P4-14S-18E]
[2]; Rate 2.0, 14 days, % increase over water-treated control
  Growth (% difference): 9.0 % difference
[2]; Rate 2.0, % increase over water-treated control
  Dry biomass (% difference): 0.8 % difference

## CSCC[C@H](NC(=O)[C@H](CC(C)C)NC(=O)[C@H](C)NC(=O)[C@H](CCC(N)=O)NC(=O)[C@H](CCSC)NC(=O)[C@@H]1CCCN1C(=O)[C@H](CC(=O)O)NC(=O)[C@@H](N)CCC(N)=O)C(=O)N[C@@H](CCC(N)=O)C(=O)N[C@@H](CC(C)C)C(=O)N[C@@H](CC(C)C)C(=O)N[C@@H](CCC(=O)O)C(=O)N[C@@H](CC(=O)O)C(=O)N[C@@H](CC(C)C)C(=O)N[C@H](C(=O)N[C@@H](CCCCN)C(=O)N[C@@H](CC(C)C)C(=O)N[C@@H](CC(C)C)C(=O)N[C@@H](CCCCN)C(=O)O)C(C)C [Peptide P14d] (H-QDPMQALMQLLEDLVKLLK-OH; N-terminus and C-terminus assumed)
[3]
  chemical stability for >50 days: around 50%

## CC[C@H](C)[C@H](NC(=O)[C@H](CC(N)=O)NC(=O)[C@H](CO)NC(=O)[C@H](CCC(N)=O)NC(=O)[C@H](CO)NC(=O)[C@H](CC(=O)O)NC(=O)[C@H](CC(N)=O)NC(=O)[C@@H]1CCCN1C(=O)[C@@H](N)CCCCN)C(=O)N[C@@H](C)C(=O)N[C@@H](CCCCN)C(=O)N[C@@H](CC(C)C)C(=O)N[C@H](C(=O)N[C@@H](CO)C(=O)N[C@@H](C)C(=O)N[C@@H](CC(C)C)C(=O)N[C@H](C(=O)N[C@@H](CCSC)C(=O)N[C@@H](CO)C(=O)N[C@@H](CC(C)C)C(=O)N[C@@H](CC(C)C)C(=O)N[C@@H](CCC(N)=O)C(=O)O)[C@@H](C)CC)[C@@H](C)CC [Peptide P15b] (H-KPNDSQSNIAKLISALIMSLLQ-OH; N-terminus and C-terminus assumed)
50 mM MES pH 6.0, and MOPS pH 6.5
  solubility at 0.2% w/v: at least partially soluble
50 mM of each of citrate pH ~5.2, citrate pH 7.0, phosphate pH 7.0, TES pH 8.0, EDTA pH 8.0, EDDS pH 7.0
  solubility at 0.2% w/v: insoluble
water
  solubility at 0.2% w/v: partially soluble

## CC[C@H](C)[C@H](NC(=O)CNC(=O)[C@H](CCC(N)=O)NC(=O)[C@@H](N)CO)C(=O)N[C@@H](CO)C(=O)N[C@@H](CCC(=O)O)C(=O)N[C@@H](CCCCN)C(=O)N[C@@H](CCC(N)=O)C(=O)N[C@@H](CC(C)C)C(=O)N[C@@H](CC(=O)O)C(=O)N[C@@H](CCC(N)=O)C(=O)N[C@@H](CC(C)C)C(=O)N[C@@H](CC(C)C)C(=O)N[C@@H](CS)C(=O)N[C@@H](CCC(N)=O)C(=O)N[C@@H](CC(C)C)C(=O)N[C@H](C(=O)N[C@@H](CCC(N)=O)C(=O)N[C@@H](C)C(=O)N[C@@H](CC(C)C)C(=O)N[C@@H](CC(C)C)C(=O)N[C@@H](CCC(N)=O)C(=O)N1CCC[C@H]1C(=O)O)[C@@H](C)CC [Peptide P4] (H-SQGISEKQLDQLLCQLIQALLQP-OH; N-terminus and C-terminus assumed)
[4]
  precipitation during stability test: remained in solution
[4]; aqueous solution
  solution stability (in words): very poor stability
[5]
  solubility: ≥ 100000 µg/mL
[6]
  solubility: completely soluble

## CC[C@H](C)[C@H](NC(=O)CNC(=O)[C@H](CCC(N)=O)NC(=O)[C@@H](N)CC(N)=O)C(=O)N[C@@H](CO)C(=O)N[C@@H](CCC(=O)O)C(=O)N[C@@H](CCCCN)C(=O)N[C@@H](CCC(N)=O)C(=O)N[C@@H](CC(C)C)C(=O)N[C@@H](CC(=O)O)C(=O)N[C@@H](CCC(N)=O)C(=O)N[C@@H](CC(C)C)C(=O)N[C@@H](CC(C)C)C(=O)N[C@H](C(=O)N[C@@H](CCC(N)=O)C(=O)N[C@@H](CC(C)C)C(=O)N[C@H](C(=O)N[C@@H](CCSC)C(=O)N[C@@H](C)C(=O)N[C@@H](CC(C)C)C(=O)N[C@@H](CC(C)C)C(=O)N[C@@H](CCC(N)=O)C(=O)N[C@@H](CCC(N)=O)C(=O)O)[C@@H](C)CC)[C@@H](C)O [Peptide P1] (H-NQGISEKQLDQLLTQLIMALLQQ-OH; N-terminus and C-terminus assumed)
[4]; 50 mM EDDS, pH 7.3
  % of the material remaining after 7 days: 10%
[4]; 50 mM MES pH 6.0, 50° C.
  better stability than the mutants after 14 days: 10-30%
[4]; 50 mM TES, pH 8.0, 80° C. as printed
  % degraded after 1 week of incubation: more than 90%
[4]
  precipitation during stability test: Precipitation of P1 was observed after several days
[4]; dissolved in water, FIG. 1
  stability (in words): modestly stable
[4]; lower pH: deionized water, 50 mM citrate pH 5.6, 50 mM MES pH 6.0
  solubility behaviour: solubility problems
[4]; phosphate, pH 8.0
  solubility (in words): some cloudiness in solution
  stability (in words): appears to outperform the stability of the mutants
[5]
  solubility: < 1000 µg/mL
[6]
  solubility: largely insoluble in water

## CC[C@H](C)[C@H](NC(=O)[C@H](CC(N)=O)NC(=O)[C@H](CO)NC(=O)[C@H](CCC(N)=O)NC(=O)[C@H](CO)NC(=O)[C@H](CC(=O)O)NC(=O)[C@H](CC(N)=O)NC(=O)[C@@H]1CCCN1C(=O)[C@H](CCCCN)NC(=O)[C@H](CO)NC(=O)[C@H](C)NC(=O)[C@H](CC(=O)O)NC(=O)[C@H](CCC(N)=O)NC(=O)[C@@H]1CCCN1C(=O)[C@H](CC(N)=O)NC(=O)[C@H](CCC(N)=O)NC(=O)[C@@H](NC(=O)[C@@H](NC(=O)[C@H](CO)NC(=O)[C@H](CC(=O)O)NC(=O)[C@@H]1CCCN1C(=O)[C@@H](NC(=O)CNC(=O)[C@H](Cc1ccccc1)NC(=O)[C@@H](N)CC(N)=O)[C@@H](C)O)[C@@H](C)O)C(C)C)C(=O)N[C@@H](C)C(=O)N[C@@H](CCCCN)C(=O)N[C@@H](CC(C)C)C(=O)N[C@H](C(=O)N[C@@H](CO)C(=O)N[C@@H](C)C(=O)N[C@@H](CC(C)C)C(=O)N[C@H](C(=O)N[C@@H](CCSC)C(=O)N[C@@H](CO)C(=O)N[C@@H](CC(C)C)C(=O)N[C@@H](CC(C)C)C(=O)N[C@@H](CCC(N)=O)C(=O)N[C@@H](CCSC)C(=O)O)[C@@H](C)CC)[C@@H](C)CC [Peptide P15a] (H-NFGTPDSTVQNPQDASKPNDSQSNIAKLISALIMSLLQM-OH; N-terminus and C-terminus assumed)
[1]
  solubility: > 10000 µg/mL
